{"source": "patent US20260151327A1", "about": "“COSMETIC COMPOSITION FOR SKIN PROTECTION CONTAINING SCUTELLARIA BAICALENSIS EXTRACT AS ACTIVE INGREDIENT” (EVERBIO CO., LTD., priority 2022, published 2026)", "type_in_all_cases": "cell-based", "key": {"[1]": {"experiment": "Cytotoxicity (CC50) in adipose-derived stem cells, 3 days exposure", "conditions": "human, adipose-derived stem cells (ASCs, ATCC PCS-500-011), benzo[a]pyrene, ASCs exposed for 3 days; read-out: CC50 (50% cytotoxicity concentration)", "experimental": "(§1) PCS-500-011™ cells (Thermo-Fisher Scientific, USA) were purchased as adipose-derived stem cells (ASCs) used in the experiment, from American Type Culture Collection (ATCC), and subcultured for 3 passages in the MesenPRO RS™ medium and MesenPRO RS™ growth supplement medium (Thermo-Fisher scientific, USA) until the live cells reached 80% to 90% confluency.\n(§2) Specifically, the cell stock vial was thawed in a 37° C. water bath and suspended in a medium with an equal volume of the cell stock vial, and then the suspension was transferred to a tube and centrifuged (2,000 rpm, 2 min, 4° C.), followed by removal of the supernatant. The phosphate buffered saline (PBS) was added to the cell pellets remaining after the removal of the supernatant, and then the above procedures were repeated three times. Thereafter, the resultant product was placed in a medium where the cell pellets were to be grown, followed by gentle pipetting up and down, thereby preparing a cell suspension. The cell suspension was dispensed into a flask or dish containing an appropriate amount of medium. The cells were subcultured when the cells reached 70% to 80% confluency on the bottom.\n(§3) PBS, media, and trypsin-EDTA were warmed at 37° C. for 30 minutes before use. The supernatant medium was removed by suction, and PBS was dispensed. […]"}, "[2]": {"system": "adipose-derived stem cells (ASCs)", "experiment": "Cytotoxicity (CC50) in adipose-derived stem cells, 3 days exposure", "conditions": "benzo[a]pyrene, ASCs exposed for 3 days; read-out: CC50 (50% cytotoxicity concentration)", "experimental": "as §1, §2, §3"}, "[3]": {"system": "AMP-activated protein kinase (AMPK)", "experiment": "Lipolysis promoting effect in ASCs, PE-anti-AMPK staining, flow cytometry and AMPK synthesis level", "conditions": "benzo[a]pyrene alone (BP50)", "experimental": "(§4) AMP-activated protein kinase (AMPK) and hormone sensitive lipase (HSL), most common lipolytic enzymes, were applied to adipose-derived stem cells (ASCs), and the lipids obtained by degradation through AMPK were stained with PE-anti-AMPK (R&D system, USA), and the lipids obtained by degradation through HSL were stained with FITC-anti-HSL (R&D system, USA) for 24 hours. The lipids were washed with PBS, and then analyzed using a flow cytometer (FACSCalibur) and FlowJo v10.6.1 (BD Bioscience, USA), and the results are shown in FIG. 3A.\n(§5) The synthesis levels of AMPK and HSL were analyzed and plotted in FIG. 3B."}, "[4]": {"system": "adipose-derived stem cells (ASCs)", "experiment": "Annexin-V-PI staining and flow cytometry: protection of ASCs against benzo[a]pyrene toxicity", "conditions": "human, 50 μM/mL", "experimental": "The adipose-derived stem cell (ASC) protective effect of the Scutellaria baicalensis extract against the cell toxicity of benzo[a]pyrene was analyzed as below.\nThe adipose-derived stem cells cultured by the method in Example 1-1 were divided into i) a group treated with 50 μM/mL benzo[a]pyrene (BP50), ii) a group treated with 50 μM/mL benzo[a]pyrene and 200 μL/mL Scutellaria baicalensis extract (SBE200+BP50), and iii) a group treated with 50 μM/mL benzo[a]pyrene and 400 μL/mL Scutellaria baicalensis extract (SBE400+BP50). To observe cell apoptosis, the cells were stained using Annexin-V-PI dye kit (Invitrogen, USA). Since Annexin-V binds to phosphatidylserine (PS), which was exposed on the outer cell membrane during early apoptosis, early apoptosis can be identified using Annexin-V. Meanwhile, propidium iodide (PI), which binds to the nucleus, stains the nucleus through holes formed in the cell membrane in a state of late apoptosis or necrosis, thereby allowing the identification of late apoptotic or dead cells. […] For result analysis, the cellular viability was measured using a flow cytometer (BD FACSCalibur) and FlowJo 10.6.1 (BD Bioscience), and the results are shown in FIG. 2."}, "[5]": {"system": "CCAAT enhancer binding protein alpha (CEBP-α)", "experiment": "mRNA expression level of CEBP-α in ASCs (RT-PCR)", "conditions": "50 μM/mL benzo[a]pyrene (BP50) vs control (Con)", "experimental": "The influence of benzo[a]pyrene and the Scutellaria baicalensis extract on the mRNA expression level of CCAAT enhancer binding protein alpha (CEBP-α), one of the lipolysis promoting genes, was investigated by the method as below.\nThe adipose-derived stem cells were divided into i) a control group with no treatment (Con), ii) a group treated with 50 μM/mL benzo[a]pyrene (BP50), iii) a group treated with 50 μM/mL benzo[a]pyrene and 200 μL/mL Scutellaria baicalensis extract (SBE200+BP50), and iv) a group treated with 50 μM/mL benzo[a]pyrene and 400 μL/mL Scutellaria baicalensis extract (SBE400+BP50), and the total RNA of each cell group was extracted using […] (GeneAll, Seoul, Korea). RNA was used to synthesize cDNA under the conditions of 1 minute at 95° C. and 35 seconds at 72° C. by using Maxime RT PreMix (iNtRON, Seungnam, Korea). The synthesized cDNA was amplified using the primers shown in Table 1 under the conditions of 15 seconds at 95° C., 30 seconds at 59° C., and 1 minute at 72° C. The amount of cDNA amplification was analyzed using iBright (FL1000, Thermo Fisher Scientific, Waltham, MA, USA) and iBright Analysis software 3.1.3 (Thermo Fisher Scientific, Waltham, MA, MA, USA), and the results are shown in FIG. 5."}, "[6]": {"system": "hormone sensitive lipase (HSL)", "experiment": "Lipolysis promoting effect in ASCs, FITC-anti-HSL staining, flow cytometry and HSL synthesis level", "conditions": "benzo[a]pyrene alone (BP50)", "experimental": "as §4, §5"}}}
{"smiles": "c1ccc2c(c1)cc1ccc3cccc4ccc2c1c34", "note": "[benzo[a]pyrene, Benzo[a]pyrene]", "values": [{"measurement": "CC50 at 3 days", "setting": "[1]", "value": 25, "unit": "µM"}, {"measurement": "CC50", "setting": "[2]", "value": 50, "unit": "µM"}, {"measurement": "proportion of cells undergoing lipolysis by AMPK", "setting": "[3]", "value": 18.72, "unit": "%"}, {"measurement": "cellular viability", "setting": "[4]", "value": 48.1, "unit": "%"}, {"measurement": "early apoptotic cell proportion", "setting": "[4]", "value": 29.6, "unit": "%"}, {"measurement": "late apoptotic cell proportion", "setting": "[4]", "value": 51.8, "unit": "%"}, {"measurement": "mRNA expression level of CEBP-α, fold higher than control group", "setting": "[5]", "value": 4.73, "unit": "fold"}, {"measurement": "proportion of cells undergoing lipolysis by HSL", "setting": "[6]", "value": 14.92, "unit": "%"}]}
